Read-outs that look alike come from different tables or passages of the source.
What was measured:
[1] = cited from earlier work
[2] = standard acid-base titration curve, FIG. 1

SMILES | pKa (physchem) | useful antacid capacity between pH 4.0 and pH 7.0 [2] [%] | other results
O=C(O)CCCCC(=O)O [Adipic, adipic acid] | 4.91 |  | 
O=C(O)CCCC(=O)O [Glutaric, glutaric acid] | 4.78 |  | 
O=C(O)/C=C\C(=O)O [Maleic, maleic acid] | 4.07 |  | 
O=C(O)CC(O)C(=O)O (centres unmarked) [Malic, malic acid] | 4.22 |  | 
CCC(=O)O [Propinic, propionic acid] |  |  | Toxicity (LD50 oral, in rat) ([1]; oral): 2600 mg/kg
O=C(O)CCC(=O)O [Succinic, succinic acid] | 4.9 |  | Toxicity (LD50 oral, in rat) ([1]; in vivo, po): 2260 mg/kg
CC(=O)[O-].[Na+] [sodium acetate] |  | 68.75 | 
O=C([O-])CCCCC(=O)[O-].[Na+].[Na+] [sodium adipate] |  | 72.50 | 
O=C([O-])CC(O)(CC(=O)[O-])C(=O)[O-].[Na+].[Na+].[Na+] [sodium citrate] |  | 57.70 | 
O=C([O-])CC(O)C(=O)[O-].[Na+].[Na+] (centres unmarked) [sodium malate] |  | 41.25 | 

— patent publication US8821891B2, “Live attenuated rotavirus vaccine for oral administration” (priority 2005, dated 2014)
